From PMC12750888, “Design, synthesis, and anti-Toxoplasma gondii evaluation of β-carboline derivatives” (Parasites & Vectors, 2025) come the findings set out here.

A value given as a limit tells only on which side of the number the result lay.

The inhibition is the change of the read-out against control, counted positive when it falls. The term inhibition of growth denotes the percentage by which the read-out fell short of the control. A high value points to strong suppression.

The subject of one data set is Vero cells. In words: Cell viability assay (CCK-8) on Vero cells. Format: cell-based, African green monkey. The following applies: 24 h; for Cytotoxicity: CCK-8, tested up to 30 µM; for inhibition at 30 µM: Chlorocebus sabaeus, CCK-8, read-out: Inhibition rate of Vero cell at 30 μM. How it is done:
African green monkey kidney (Vero) cells were cultured in Dulbecco’s modified Eagle’s medium (DMEM) supplemented with 100 U/mL penicillin, 100 μg/mL streptomycin, 1% nonessential amino acids (NEAAs), 1% GlutaMAX and 10% fetal bovine serum (FBS) at 37 °C in an atmosphere of 5% CO2. […] DMEM without a drug was used as a control. After 24 h of treatment, Cell Counting Kit-8 (CCK-8, CA1210, Solarbio) was used to determine cell viability at 450 nm via a Multiskan GO instrument.

The subject of the next data set is T. gondii RH tachyzoites. In words: Screening for anti-T. gondii activity in vitro (plaque and qPCR assays). Format: cell-based, Toxoplasma gondii. The following applies: Toxoplasma gondii, Vero, 24 h, 30 μM, RH tachyzoites in Vero cells, plaque and qPCR assays. How it is done:
The anti-T. gondii activity of compounds NBZ001‒037 was examined via RT-PCR. Confluent Vero cells in 6-well plates were infected with 2 × 10^5 T. gondii RH tachyzoites per well, incubated for 6 h, and then washed twice with PBS to remove extracellular tachyzoites. The cell monolayers were incubated with DMEM (1% FBS) containing various concentrations of NBZ001‒037 for 24 h. Total genomic DNA from each sample was isolated with the DNAiso reagent (Takara), and the levels of the 529-bp repeat element of T. gondii were measured by qPCR. A plaque assay was used to evaluate the activity of the compounds. The detailed experimental procedures were described in previous studies.
(In general: Quantitative PCR measures a nucleic acid by following its amplification.)

For the compound `O=C(Nc1cccc2ccccc12)c1ccc2[nH]c3c(C(=O)c4ccccc4Br)nccc3c2c1` [NBZ020], in the data set with Vero cells, the Cytotoxicity is > 30.00 µM and the inhibition at 30 µM turned out to be 8.15%. Moreover, the inhibition of growth at 30 µM in the data set with T. gondii RH tachyzoites was found to be 7.22%.
For `CN(C)c1ccc(NC(=O)c2ccc3[nH]c4c(C(=O)c5ccccc5Br)nccc4c3c2)cc1` [NBZ033] the same measures were > 30.00 µM, 11.2% and 14.3%.
As to `O=C(O)c1ccc2[nH]c3c(C(=O)c4ccccc4Cl)nccc3c2c1` [NBZ009], in the data set with Vero cells, the Cytotoxicity is > 30.00 µM and the inhibition at 30 µM stood at 15%. In addition, in the data set on T. gondii RH tachyzoites, the inhibition of growth at 30 µM worked out at 32.1%.
For `O=C(c1ccccc1Cl)c1nccc2c1[nH]c1ccccc12` [NBZ001] the same measures were > 30.00 µM, 24.2% and 31.3%.
As for `NC(=O)c1ccc2[nH]c3c(C(=O)c4ccccc4Br)nccc3c2c1` [NBZ013], in the data set on Vero cells, the Cytotoxicity was > 30.00 µM and the inhibition at 30 µM stood at 11.2%. In the data set on T. gondii RH tachyzoites, the inhibition of growth at 30 µM came to 34.5%.
Taken in the same sequence, the figures for `COc1ccc(C(=O)c2nccc3c2[nH]c2ccc(C(=O)O)cc23)cc1` [NBZ012] were > 30.00 µM, 7.66% and 21.9%.
For `O=C(NC1CCCCC1)c1ccc2[nH]c3c(C(=O)c4ccccc4Br)nccc3c2c1` [NBZ015] the same measures were > 30.00 µM, 3.68% and 37.1%.
Taken in the same sequence, the figures for `Cc1ccc2[nH]c3c(C(=O)c4ccc(Br)cc4)nccc3c2c1` [NBZ007] were > 30.00 µM, 13.5% and 31.2%.
`CC(=O)OC[C@H]1O[C@@H](OC(C)=O)[C@H](NC(=O)c2ccc3[nH]c4c(C(=O)c5ccccc5Br)nccc4c3c2)[C@@H](OC(C)=O)[C@@H]1OC(C)=O` [NBZ019]: in the data set with Vero cells, the Cytotoxicity was > 30.00 µM and the inhibition at 30 µM turned out to be 9.56%. This compound had an inhibition of growth at 30 µM in the data set with T. gondii RH tachyzoites of 35.9%.
As to `O=C(Nc1ccccc1)c1ccc2[nH]c3c(C(=O)c4ccccc4Br)nccc3c2c1` [NBZ022], in the data set on Vero cells, the Cytotoxicity was > 30.00 µM and the inhibition at 30 µM was 46.8%. This compound registered an inhibition of growth at 30 µM in the data set on T. gondii RH tachyzoites of 17.4%.
For `CCCCNC(=O)c1ccc2[nH]c3c(C(=O)c4ccccc4Br)nccc3c2c1` [NBZ014] the same measures were > 30.00 µM, 19.7% and 2.09%.
As to `COc1ccc(NC(=O)c2ccc3[nH]c4c(C(=O)c5ccccc5Br)nccc4c3c2)cc1` [NBZ029], in the data set with Vero cells, the Cytotoxicity is > 30.00 µM and the inhibition at 30 µM amounted to 27.9%. This compound also showed an inhibition of growth at 30 µM with T. gondii RH tachyzoites of 30.3%.
For `Cc1ccccc1NC(=O)c1ccc2[nH]c3c(C(=O)c4ccccc4Br)nccc3c2c1` [NBZ024], in the data set with Vero cells, the Cytotoxicity is > 30.00 µM and the inhibition at 30 µM came to 24.4%. The same compound gave an inhibition of growth at 30 µM with T. gondii RH tachyzoites of 3.45%.
Regarding `COc1ccc(C(=O)c2nccc3c2[nH]c2ccc(C)cc23)cc1` [NBZ008], in the data set with Vero cells, the Cytotoxicity was > 30.00 µM and the inhibition at 30 µM amounted to 13.1%. The same compound gave an inhibition of growth at 30 µM in the data set with T. gondii RH tachyzoites of 17.3%.
For `O=C(NCc1ccco1)c1ccc2[nH]c3c(C(=O)c4ccccc4Br)nccc3c2c1` [NBZ017] the same measures were > 30.00 µM, 10.8% and 43.4%.
Take `CN(C)c1cccc(NC(=O)c2ccc3[nH]c4c(C(=O)c5ccccc5Cl)nccc4c3c2)c1` [NBZ030]: in the data set on Vero cells, the Cytotoxicity is > 30.00 µM and the inhibition at 30 µM is 12.8%. This compound had an inhibition of growth at 30 µM with T. gondii RH tachyzoites of 69.2%.
Taken in the same sequence, the figures for `Cc1ccc(NC(=O)c2ccc3[nH]c4c(C(=O)c5ccccc5Br)nccc4c3c2)cc1` [NBZ026] were > 30.00 µM, 23.6% and 21.1%.
For `O=C(c1ccccc1Br)c1nccc2c1[nH]c1ccc(Br)cc12` [NBZ003] the same measures were > 30.00 µM, 21.8% and 40.8%.
Regarding `O=C(Nc1cccc2ccccc12)c1ccc2[nH]c3c4[n+](ccc3c2c1)-c1ccccc1C4=O` [NBZ034], in the data set with Vero cells, the inhibition at 30 µM was 58.2%.
For the compound `O=C(O)c1ccc2[nH]c3c(C(=O)c4ccccc4Br)nccc3c2c1` [NBZ010], in the data set with Vero cells, the Cytotoxicity was > 30.00 µM and the inhibition at 30 µM came out at 16.6%. Besides, the inhibition of growth at 30 µM in the data set on T. gondii RH tachyzoites came out at 45.2%.
On to `CN(C)c1ccc(NC(=O)c2ccc3[nH]c4c(C(=O)c5ccccc5Cl)nccc4c3c2)cc1` [NBZ032], for which, in the data set with Vero cells, the Cytotoxicity is > 30.00 µM and the inhibition at 30 µM is 16%. For the same compound, in the data set on T. gondii RH tachyzoites, the inhibition of growth at 30 µM is 73%.
Take `O=C(c1ccccc1Cl)c1nccc2c1[nH]c1ccc(C(=O)N3CCOCC3)cc12` [NBZ016]: in the data set with Vero cells, the Cytotoxicity was > 30.00 µM and the inhibition at 30 µM was found to be 10.5%. Testing at 30 µM with T. gondii RH tachyzoites gave an inhibition of growth of 37.4%.
In the case of `Cc1ccc(NC(=O)c2ccc3[nH]c4c5[n+](ccc4c3c2)-c2ccccc2C5=O)cc1.[Cl-]` [NBZ037, 13-oxo-9-(p-tolylcarbamoyl)-12,13-dihydropyrido[1,2-a:3,4-b’]diindol-5-ium chloride], in the data set with Vero cells, the Cytotoxicity was > 30.00 µM and the inhibition at 30 µM is 29.7%.
In the case of `O=C(O)c1ccc2[nH]c3c(C(=O)c4ccc(Br)cc4)nccc3c2c1` [NBZ011], in the data set on Vero cells, the Cytotoxicity is > 30.00 µM and the inhibition at 30 µM was determined as 3.88%. Besides, the inhibition of growth at 30 µM in the data set with T. gondii RH tachyzoites was > 50%.
Taken in the same sequence, the figures for `Cc1ccc(NC(=O)c2ccc3[nH]c4c(C(=O)c5ccccc5Cl)nccc4c3c2)cc1` [NBZ025] were > 30.00 µM, 3.96% and 32.6%.
With `Cc1ccc2[nH]c3c(C(=O)c4ccccc4Br)nccc3c2c1` [NBZ005], in the data set on Vero cells, the Cytotoxicity was > 30.00 µM and the inhibition at 30 µM turned out to be 43.9%. For the same compound, 30 µM produced 33.9% inhibition of growth in the data set with T. gondii RH tachyzoites.
`COc1ccccc1NC(=O)c1ccc2[nH]c3c(C(=O)c4ccccc4Cl)nccc3c2c1` [NBZ027, (2-Chlorobenzoyl)-N-(2-methoxyphenyl)-9H-pyrido[3,4-b]indole-6-carboxamide]: in the data set with Vero cells, the Cytotoxicity was > 30.00 µM and the inhibition at 30 µM is 27.9%.
On to `O=C(c1ccccc1Br)c1nccc2c1[nH]c1ccccc12` [NBZ002], for which, in the data set on Vero cells, the Cytotoxicity was > 30.00 µM and the inhibition at 30 µM was determined as 27.2%. The compound also registered an inhibition of growth at 30 µM with T. gondii RH tachyzoites of 42.2%.
As for `Cc1ccc2[nH]c3c(C(=O)c4cccc(Br)c4)nccc3c2c1` [NBZ006], in the data set on Vero cells, the Cytotoxicity is > 30.00 µM and the inhibition at 30 µM worked out at 13.1%. In the data set on T. gondii RH tachyzoites, this compound registered an inhibition of growth at 30 µM of 33.3%.
In the case of `COc1ccc(NC(=O)c2ccc3[nH]c4c(C(=O)c5ccccc5Cl)nccc4c3c2)cc1` [NBZ028], in the data set with Vero cells, the Cytotoxicity was > 30.00 µM and the inhibition at 30 µM is 19.3%.
`CN(C)c1cccc(NC(=O)c2ccc3[nH]c4c(C(=O)c5ccccc5Br)nccc4c3c2)c1` [NBZ031]: in the data set with Vero cells, the Cytotoxicity was > 30.00 µM and the inhibition at 30 µM was determined as 6.47%. Further, testing at 30 µM in the data set with T. gondii RH tachyzoites gave an inhibition of growth of 72.7%.
